Results on 56 molecules are retold here after ChEMBL document CHEMBL2010651, “Discovery and hit-to-lead optimization of pyrrolopyrimidines as potent, state-dependent Na(v)1.7 antagonists” (Bioorg Med Chem Lett, 2012).

≈ marks a conversion by molar mass, not a printed value.

A word on the logD: it is the decadic logarithm of the distribution of all forms, ionised or not, between an organic phase and buffer at a given pH. Read a low logD as lower lipophilicity. One may read the solubility as how much of the substance goes into solution per volume. High values mean much dissolved substance, low ones little dissolved substance.

The first data set can be described thus: Lipophilicity, log D of the compound at pH 7.4. The data set is classed as physicochemical. To be noted: buffer.
Take `c1ccc(Cn2ccc3c(OC4CCN(c5ccccc5)CC4)ncnc32)cc1`: the logD was found to be 5.31.

On to `Fc1ccc(Cn2ccc3c(OC4CCN(Cc5cscn5)CC4)ncnc32)cc1`, for which the logD is 3.49.

Turning to `c1ccc(Cn2ccc3c(OC4CCN(Cc5ccncc5)CC4)ncnc32)cc1`, the logD turned out to be 3.69.

`Fc1ccc(CN2CCC(Oc3ncnc4c3ccn4Cc3ccccc3)CC2)nc1` registered a logD of 3.76.

Molecule `Cc1ccccc1Cn1ccc2c(OC3CCN(Cc4cscn4)CC3)ncnc21` showed a logD of 3.9.

Take `c1ccc(CCn2ccc3c(OC4CCN(Cc5cscn5)CC4)ncnc32)cc1`: the logD worked out at 3.87.

In turn, `Cc1cccnc1CN1CCC(Oc2ncnc3c2ccn3Cc2ccccc2)CC1` registered a logD of 4.15.

`c1ccc(Cn2ccc3c(OC4CCN(Cc5cccnc5)CC4)ncnc32)cc1` returned a logD of 3.67.

Regarding `c1ccc(Cn2cnc3c(OC4CCN(Cc5cscn5)CC4)ncnc32)cc1`, the logD was 2.28.

`Fc1cccc(Cn2ccc3c(OC4CCN(Cc5cscn5)CC4)ncnc32)c1` yielded a logD of 3.49.

In turn, `Cn1cc(CN2CCC(Oc3ncnc4c3ccn4Cc3ccccc3)CC2)cn1` showed a logD of 3.01.

In turn, `c1ccc(Cn2ccc3c(OC4CCN(Cc5cocn5)CC4)ncnc32)cc1` showed a pH-dependent lipophilicity (logD) of 3.1. The logD values of the last two molecules are within 0.2 log units of each other.

In turn, `Cc1ccc(CN2CCC(Oc3ncnc4c3ccn4Cc3ccccc3)CC2)nc1` registered a logD of 4.15.

Molecule `CC1(C)CN(Cc2ccccc2)c2ncnc(OC3CCN(Cc4cscn4)CC3)c21` came in with a pH-dependent lipophilicity (logD) of 3.94.

As for `Fc1cccc(CN2CCC(Oc3ncnc4c3ccn4Cc3ccccc3)CC2)n1`, the logD was 3.83. This logD and that of the molecule before are within 0.2 log units of each other.

Molecule `c1ccc(Cn2ncc3c(OC4CCN(Cc5cscn5)CC4)ncnc32)cc1` gave a logD of 2.18.

Consider `Fc1ccccc1Cn1ccc2c(OC3CCN(Cc4ccccn4)CC3)ncnc21`, for which the logD turned out to be 3.75.

Molecule `Cc1nc(OC2CCN(Cc3cscn3)CC2)c2ccn(Cc3ccccc3)c2n1` returned a logD of 4.15.

For `c1ccc(Cn2ccc3c(OC4CCN(Cc5c[nH]cn5)CC4)ncnc32)cc1`, the logD was found to be 2.35.

`Cc1nc(CN2CCC(Oc3ncnc4c3ccn4Cc3ccccc3)CC2)cs1`: the logD came to 4.1.

Regarding `c1ccc(-n2ccc3c(OC4CCN(Cc5cscn5)CC4)ncnc32)cc1`, the logD amounted to 3.3.

Molecule `Fc1c(Cl)cccc1Cn1ccc2c(OC3CCN(Cc4ccccn4)CC3)ncnc21` registered a logD of 4.46.

The molecule `Fc1c(Cn2ccc3c(OC4CCN(Cc5cscn5)CC4)ncnc32)cccc1C(F)(F)F` yielded a logD of 4.08.

In the case of `Cn1ccnc1CN1CCC(Oc2ncnc3c2ccn3Cc2ccccc2)CC1`, the logD worked out at 2.93.

`Clc1cn(Cc2ccccc2)c2ncnc(OC3CCN(Cc4cscn4)CC3)c12` returned a logD of 4.03.

Regarding `Fc1ccccc1Cn1ccc2c(OC3CCN(Cc4cscn4)CC3)ncnc21`, the log distribution coefficient (logD) was 3.49.

In turn, `Cc1ccc(Cn2ccc3c(OC4CCN(Cc5cscn5)CC4)ncnc32)cc1` registered a logD of 3.9.

In turn, `O=C(c1cscn1)N1CCC(Oc2ncnc3c2ccn3Cc2ccccc2)CC1` came in with a logD of 3.07.

`Clc1cccc(Cn2ccc3c(OC4CCN(Cc5cscn5)CC4)ncnc32)c1`: the logD came out at 4.03.

Molecule `c1ccc(Cn2ccc3c(OC4CCN(Cc5nccs5)CC4)ncnc32)cc1` had a logD of 4.81.

`CC1(C)C(=O)N(Cc2ccccc2)c2ncnc(OC3CCN(Cc4cscn4)CC3)c21` displayed a logD of 2.39.

`c1ccc(CN2CCC(Oc3ncnc4c3ccn4Cc3ccccc3)CC2)cc1` had a logD of 4.96.

`Cc1cccc(CN2CCC(Oc3ncnc4c3ccn4Cc3ccccc3)CC2)n1` registered a logD of 4.08.

In turn, `c1ccc(Cn2ccc3c(OC4CCN(Cc5ccn[nH]5)CC4)ncnc32)cc1` gave a logD of 3.02.

The molecule `c1ccc(Cn2ccc3c(OC4CCN(Cc5cnccn5)CC4)ncnc32)cc1` showed a logD of 2.71.

For the molecule `FC(F)(F)c1ccccc1Cn1ccc2c(OC3CCN(Cc4cscn4)CC3)ncnc21`, the log distribution coefficient (logD) was determined as 4.01.

`Cc1cccc(Cn2ccc3c(OC4CCN(Cc5cscn5)CC4)ncnc32)c1` came in with a logD of 3.9. This logD and that of the molecule before are within 0.2 log units of each other.

`FC(F)(F)c1ccc(Cn2ccc3c(OC4CCN(Cc5cscn5)CC4)ncnc32)cc1` came in with a logD of 4.01. This logD and that of the molecule before are within 0.2 log units of each other.

For the molecule `Fc1c(Cn2ccc3c(OC4CCN(Cc5ccccn5)CC4)ncnc32)cccc1C(F)(F)F`, the logD turned out to be 4.35.

For `Cc1cn(Cc2ccccc2)c2ncnc(OC3CCN(Cc4cscn4)CC3)c12`, the logD worked out at 3.89.

`c1ccc(Cn2ccc3c(OC4CCN(Cc5cn[nH]c5)CC4)ncnc32)cc1` returned a logD of 3.16.

As for `FC(F)(F)c1cccc(Cn2ccc3c(OC4CCN(Cc5cscn5)CC4)ncnc32)c1`, the logD came out at 4.01.

With `Fc1cccc(Cn2ccc3c(OC4CCN(Cc5cscn5)CC4)ncnc32)c1F`, the logD came out at 3.45.

In turn, `Fc1cccc(Cn2ccc3c(OC4CCN(Cc5ccccn5)CC4)ncnc32)c1F` displayed a log distribution coefficient (logD) of 3.71.

`Fc1cccnc1CN1CCC(Oc2ncnc3c2ccn3Cc2ccccc2)CC1` returned a pH-dependent lipophilicity (logD) of 3.77.

`c1ccc(Cn2ccc3c(OC4CCN(Cc5ccccn5)CC4)ncnc32)cc1`: the logD worked out at 3.7. This logD and that of the molecule before are within 0.2 log units of each other.

For `c1nc(OC2CCN(Cc3cscn3)CC2)c2ccn(CC3CCCCC3)c2n1`, the logD came to 4.32.

With `Clc1ccc(Cn2ccc3c(OC4CCN(Cc5cscn5)CC4)ncnc32)cc1`, the logD is 4.03.

`FC(F)(F)c1nc(OC2CCN(Cc3cscn3)CC2)c2ccn(Cc3ccccc3)c2n1` displayed a pH-dependent lipophilicity (logD) of 5.1.

Regarding `Fc1cn(Cc2ccccc2)c2ncnc(OC3CCN(Cc4cscn4)CC3)c12`, the logD came out at 3.49.

Turning to `Fc1c(Cl)cccc1Cn1ccc2c(OC3CCN(Cc4cscn4)CC3)ncnc21`, the logD was 4.19.

The molecule `c1ccc(Cn2ccc3c(OC4CCNCC4)ncnc32)cc1` registered a logD of 1.24.

As for `Fc1cccc(F)c1Cn1ccc2c(OC3CCN(Cc4cscn4)CC3)ncnc21`, the logD was 3.58.

As to `c1ccc(Cn2ccc3c(OC4CCN(Cc5cscn5)CC4)ncnc32)cc1`, the logD worked out at 3.44. This logD and that of the molecule before are within 0.2 log units of each other.

`Cc1c(C)n(Cc2ccccc2)c2ncnc(OC3CCN(Cc4cscn4)CC3)c12` returned a pH-dependent lipophilicity (logD) of 4.35.

The molecule `Cc1ccnc(CN2CCC(Oc3ncnc4c3ccn4Cc3ccccc3)CC2)c1` displayed a logD of 4.15.

Another data set can be described thus: Solubility in phosphate buffered saline. In kind it is physicochemical.
Settings: not given
`Cc1c(C)n(Cc2ccccc2)c2ncnc(OC3CCN(Cc4cscn4)CC3)c12`: the solubility is 65 µg/mL (≈ 150 µM).

A short description of another data set: Solubility in 0.01 N HCl. In kind it is physicochemical.
Settings: not given
Molecule `Cc1c(C)n(Cc2ccccc2)c2ncnc(OC3CCN(Cc4cscn4)CC3)c12` gave a solubility of over 200 µg/mL.

A further data set can be described thus: Solubility in simulated intestinal fluid. In kind it is physicochemical.
Settings: not given
The molecule `Cc1c(C)n(Cc2ccccc2)c2ncnc(OC3CCN(Cc4cscn4)CC3)c12` gave a solubility of 177 µg/mL (≈ 408 µM).
